The text below walks through data of US9932376B2, “Analogues of temporin-SHa and uses thereof” (UNIVERSITE PIERRE ET MARIE CURIE (PARIS 6), priority 2013, dated 2018).

“Also recorded” adds a separate entry of the source. Ends that are not written are not given here. A value given as a limit tells only on which side of the number the result lay.

As a reminder, the MIC is the lowest concentration that inhibits growth of the organism. Lower therefore signals a more susceptible organism. A word on the IC50: it is the midpoint of a concentration-inhibition curve.

For series [1], the system named is Leishmania infantum promastigotes (strain MHOM/MA/67/ITMAP-263). As to the kind of experiment: Tests of anti-leishmanial activity on promastigotes expressing the luciferase. The series is classed as cell-based. As to conditions: result in words. The protocol:
Leishmanicidal activity of peptides was evaluated on the promastigote form of Leishmania infantum (strain MHOM/MA/67/ITMAP-263), responsible for visceral leishmaniosis.
Promastigotes were maintained at 26° C. by one or two weekly passages, depending on the number of parasites in the inoculum, in SDM 79 medium supplemented with 10 to 20% decomplemented fetal calf serum and […] porcine hemin and in the presence of 100 U/mL penicillin and 100 μg/mL streptomycin (Brun et al., 1979). Starting from an inoculum of 10^5 cells/mL in logarithmic growth phase, the promastigotes reached a cell density of 1 to 2×10^8 parasites/mL in stationary phase after 5 days of culture in 25 cm^2 culture flasks. Cell densities were determined by flow cytometry in the presence of propidium iodide on a FAC Scan cytometer (Excalibur, Becton Dickinson, Ivry, France).
The tests of anti-leishmanial activity were carried out with a parasite line expressing the luciferase. […]
After 72 hrs of incubation at 26° C., 50 μL of Steady-Glo lysis buffer (Promega) were added to each well. […] Emitted luminescence was measured with a luminescence plate reader (Victor, PerkinElmer). […] The percentage growth was calculated according to the following formula: % growth=[(L mean−bgd)peptide×100]/(L mean−bgd)negative control
where L mean: mean luminescence and bgd: background corresponding to the luminescence emitted by the culture medium. […]

A short description of series [2]: Hemolytic test. The series is classed as cell-based, rat. As to conditions: rat erythrocytes (washed red blood cells), pH 7.4, rat erythrocytes, 1 hr at 37° C.; for CC50 at 1 hr: read-out: LC50 (hemolytic activity), unit inferred. The procedure:
(§1) The hemolytic activity of the antimicrobial peptides was assessed using rat erythrocytes. Red blood cell hemolysis is manifested by the release into the reaction medium of hemoglobin, the concentration of which is determined spectrophotometrically at 450 nm.
(§2) Red blood cells were separated from plasma and white blood cells by centrifugation of blood (900×g, 10 min). The pellet containing red blood cells was washed three times with PBS buffer, pH 7.4. After counting on a Malassez cell, a stock solution of 4×10^8 red blood cells/mL was prepared in the same buffer. A series of concentrations of the peptides to be tested was prepared (2 to 400 μM).
(§3) The test was carried out as follows: 50 μL of the different peptide concentrations were added to 50 μL of the red blood cell suspension. After 1 hr of incubation at 37° C. followed by centrifugation (12,000×g, 15 sec), absorbance of the supernatant was measured at 450 nm. The negative control for this test (0% hemolysis) contained […] in place of the peptide solution. The positive control (100% hemolysis) contained 50 μL of 0.1% Triton X-100 in place of the peptide solution.
(§4) The LC50 value obtained is the mean of three experiments carried out in triplicate and corresponds to the peptide concentration inducing hemolysis of 50% of the cells.

The subject of series [3] is rat erythrocytes. As to the kind of experiment: Hemolytic test. The series is classed as cell-based. As to conditions: for hemolytic activity (in words): rat erythrocytes, result in words. The procedure: as §1, §2, §3, §4
Series [4] relates to Gram-positive and Gram-negative bacterial strains. Format: cell-based. An excerpt:
The following strains were used for the antibacterial activity tests: Escherichia coli (ATCC 25922 and ML-35p), Staphylococcus aureus (ATCC 25923 and ST1065), Enterococcus faecalis (ATCC 29212), Pseudomonas aeruginosa (ATCC 27853), Streptococcus pyogenes (ATCC 19615), Listeria ivanovii, Salmonella enterica (serotype Enteritidis), Acinetobacter baumannii (ATCC 19606) and Klebsiella pneumoniae (ATCC 13883). Two antibiotic-resistant strains were also used (S. aureus ATCC 43300 and ATCC BAA-44).
For each strain, a standard inoculum of approximately 10^6 bacteria/mL (exponential growth phase) was prepared. To this end, a colony isolated on LB agar previously inoculated with one of the strains was cultured in 4 mL of LB broth medium, except for S. pyogenes and L. ivanovii, which were grown in BHI (Brain Heart Infusion) from a colony isolated on BHI agar. Liquid cultures were then incubated for 2 to 3 hrs at 37° C. with shaking for the bacteria to reach exponential growth phase. […]
The minimum inhibitory concentration (MIC) of each peptide was determined by a test of growth inhibition in broth medium. […] Bacterial growth was determined by measuring OD at 630 nm (turbidity) on a plate reader. […]

Series [5] relates to yeasts. Nature of the series: Tests of antifungal activity (growth inhibition in YPD broth medium, MIC). Format: cell-based. The protocol:
Three yeast strains were used: Saccharomyces cerevisiae, Candida albicans (ATCC 90028), Candida parapsilosis (ATCC 22019). These strains were first grown on YPD agar for a minimum of 48 hrs. Yeast suspensions were then prepared, exactly as for bacteria, and adjusted to 10^6 cfu/mL in YPD broth medium.
The antifungal activity test corresponds to the growth inhibition test in broth medium used for the bacteria (see above) in which MH medium was replaced by YPD medium. Fungal strains were incubated at 30° C.

Series [6] deals with THP-1 monocyte-derived macrophages. As to the kind of experiment: Cytotoxicity test on THP-1 human monocytes-derived macrophages. Format: cell-based. As to conditions: result in words. The protocol:
The viability of macrophages was ascertained using a trypan blue-based microassay. THP-1 cells from a culture suspension in mid-log phase of growth were plated at a density of 5×10^5 cells/mL in 96-well plates (100 μL/well, i.e., 5×10^4 cells/well) and differentiated as described above. After incubation for 72 hrs at 37° C. with 5% CO2, in the presence of peptide (60 μM to 7.5 μM, final concentrations), adherent macrophages were washed once with prewarmed RPMI 1640 medium and stained for 5 min, with 100 μL of trypan blue 2-fold diluted in RPMI 1640 medium. Wells were then washed twice with 100 μL of RPMI 1640 medium. Living white cells were microscopically counted in three focuses per well using a reticulated ocular.
The viability index (VI) was calculated for each peptide concentration using the following formula: VI=[N meanpeptide×100]/N meannegative control.
where N mean is the mean number of viable parasites. The negative control (100% growth) contained 20 μL of RPMI medium in place of the peptide solution.
The LC50 value, which corresponds to the peptide concentration inducing lysis of 50% of the cells, was determined from the viability indexes. Tests were carried out in sextuplicate for each peptide concentration and at least two independent experiments were performed to determine the LC50 value.

Series [7] deals with Leishmania infantum promastigote. As to conditions: read-out: IC50 against the promastigote form; cited from earlier work.
Series [8] relates to Leishmania infantum axenic amastigote. As to conditions: read-out: IC50 against the axenic amastigote form; cited from earlier work.

Regarding “F-L-K-G-I-K-G-M-L-G-K-L-L (FLKGIKGMLGKLL-NH2) [[K^3, K^6, L^13]temporin-SHa]”, in series [1], the “anti-leishmanial activity on L. infantum promastigotes (in words)” value is given as “approaches the cytotoxicity level of monocytes”.
With “FLKGIKGMLGKLF-NH2 [[K^3,K^6]temporin-SHa, F-L-K-G-I-K-G-M-L-G-K-L-F]”, the CC50 at 1 hr in series [2] was > 500 µM. Further, in series [3], the “hemolytic activity (in words)” value is on record as “no hemolytic activity”.
In the same order, the values of “FLKGIVGKLGKLF-NH2 [[K^3,K^8]temporin-SHa, F-L-K-G-I-V-G-K-L-G-K-L-F]” are > 500 µM and “no hemolytic activity”.
In the same order, the values of “FLKGIVGKLGKLL-NH2 [[K^3, K^8,L^13]temporin-SHa, F-L-K-G-I-V-G-K-L-G-K-L-L]” are > 500 µM and “no hemolytic activity”.
For FLKGIVGMLGKLF-NH2 [[K^3]temporin-SHa], the MIC fell in the range of 3 to 6 µM in series [4] (Gram-positive (including antibiotic-resistant S. aureus strains) and Gram-negative bacterial strains of clinical interest); 3 to 6 µM in series [5]. The “antimicrobial activity (in words)” value in series [4] (bacteria and yeasts tested, result in words) is “more potent”.
Regarding “FLKGIVGMLGKLL-NH2 [[K^3,L^13]temporin-SHa, F-L-K-G-I-V-G-M-L-G-K-L-L]”, in series [3], the “hemolytic activity (in words)” value is on record as “lower hemolytic activity; also recorded: lesser haemolytic”. Moreover, the “fold lower hemolytic activity than [K^3]temporin-SHa” value in series [3] (relative to [K^3]temporin-SHa) worked out at 2 fold. Further, the “cytotoxicity against the host cell (macrophage) (in words)” value in series [6] is given as “reduced cytotoxicity”.
As to “FLKGIVGMLGKLW-NH2 [[K^3,W^13]temporin-SHa, F-L-K-G-I-V-G-M-L-G-K-L-W]”, the “hemolytic activity (in words)” value in series [3] is reported as “lower hemolytic activity; also recorded: lesser haemolytic”.
Take “FLSGIVGMLGKLF [temporin-SHa, F-L-S-G-I-V-G-M-L-G-K-L-F]”: the results for the half-inhibitory concentration (IC50) in series [7] and in series [8] were 18.1 µM and 22.8 µM, respectively.
As to “KGIVGMLGKLF-NH2 [[K^3]temporin-SHa(3-13)]”, the HC50 at 1 hr in series [2] (read-out: LC50 (hemolytic activity)) was 618 µM. Besides, the “hemolytic activity (in words)” value in series [3] is “devoid of hemolytic activity”.
